Laboratory results from patent US5922580A, “Non-reducing saccharide-forming enzyme, its preparation and uses” (priority 1992, dated 1999).

Legend:
[1] = system: 7-week old dd-strain mice; assay: Acute toxicity test, oral; type: in vivo; details: for Death of mice: oral, highest possible doses; for LD50: mouse, in vivo, po
[2] = system: glucoamylase; assay: Enzymatic hydrolysis by glucoamylase; type: biochemical; details: for Glucose / Trehalose: 50 mg in 1 ml 50 mM acetate buffer pH 4.5, one unit glucoamylase, 40° C., 6 hours, HPLC; for Molecular ratio (Glucose/Trehalose): glucoamylase hydrolysate
Description: Fifty mg aliquots of non-reducing saccharides P I, P II, P III, P IV and P V in Experiment 4 were respectively dissolved in one ml of 50 mM acetate buffer (pH 4.5), admixed with one unit of glucoamylase commercialized by Seikagaku-Kogyo Co., Ltd., Tokyo, Japan, to effect enzymatic hydrolysis at 40° C. for 6 hours. The only saccharides detected in every resultant mixture on HPLC analysis were glucose and trehalose.

[3] = Maillard reaction with glycine; type: physicochemical; details: for Coloration degree (480 nm): 1% glycine, 10% saccharide, 50 mM phosphate buffer pH 7.0, 100° C. for 90 min, absorbance in 1-cm cell; for Coloration degree relative to corresponding material maltooligosaccharide: Maillard reaction, 480 nm
Description: As a control, maltotriose, maltotetraose, maltopentaose, maltohexaose and maltoheptaose as a material for the saccharide preparations were similarly treated as above, and measured their absorbances were measured at a wave length of 480 nm.

[4] = system: rat intestinal acetone powder; assay: Hydrolysis by rat intestinal acetone powder; type: in vitro ADME; details: 50 mM maleate buffer pH 6.0, 37° C., 18 hours
Description: (§1) The enzymatic reaction with the α-amylase was as follows: Dissolving 10 mg of a substrate in one ml of 50 mM phosphate buffer (pH 6.9), mixing the resultant solution with one unit of the α-amylase, and incubating the resultant mixture at 37° C. for 18 hours. The enzymatic reaction with the α-glucosidase was conducted under the same conditions as in the case of α-amylase except that 50 mM acetate buffer (pH 4.0) was used as a buffer. The enzymatic reaction with the rat intestinal acetone powder was carried out under the same conditions as in the case of α-amylase except that 50 mM maleate buffer (pH 6.0) was used as a buffer.

[5] = target: T1, α-glucosidase specimen derived from rice (Oryza sativa subsp. japonica, UniProt Q653V7); assay: Hydrolysis by α-glucosidase; type: biochemical; details: 50 mM acetate buffer pH 4.0, 37° C., 18 hours
T1 construct: purchased Sigma Chemical Company, St. Louis, USA; host or cells: rice
T1 sequence (Q653V7 34-885): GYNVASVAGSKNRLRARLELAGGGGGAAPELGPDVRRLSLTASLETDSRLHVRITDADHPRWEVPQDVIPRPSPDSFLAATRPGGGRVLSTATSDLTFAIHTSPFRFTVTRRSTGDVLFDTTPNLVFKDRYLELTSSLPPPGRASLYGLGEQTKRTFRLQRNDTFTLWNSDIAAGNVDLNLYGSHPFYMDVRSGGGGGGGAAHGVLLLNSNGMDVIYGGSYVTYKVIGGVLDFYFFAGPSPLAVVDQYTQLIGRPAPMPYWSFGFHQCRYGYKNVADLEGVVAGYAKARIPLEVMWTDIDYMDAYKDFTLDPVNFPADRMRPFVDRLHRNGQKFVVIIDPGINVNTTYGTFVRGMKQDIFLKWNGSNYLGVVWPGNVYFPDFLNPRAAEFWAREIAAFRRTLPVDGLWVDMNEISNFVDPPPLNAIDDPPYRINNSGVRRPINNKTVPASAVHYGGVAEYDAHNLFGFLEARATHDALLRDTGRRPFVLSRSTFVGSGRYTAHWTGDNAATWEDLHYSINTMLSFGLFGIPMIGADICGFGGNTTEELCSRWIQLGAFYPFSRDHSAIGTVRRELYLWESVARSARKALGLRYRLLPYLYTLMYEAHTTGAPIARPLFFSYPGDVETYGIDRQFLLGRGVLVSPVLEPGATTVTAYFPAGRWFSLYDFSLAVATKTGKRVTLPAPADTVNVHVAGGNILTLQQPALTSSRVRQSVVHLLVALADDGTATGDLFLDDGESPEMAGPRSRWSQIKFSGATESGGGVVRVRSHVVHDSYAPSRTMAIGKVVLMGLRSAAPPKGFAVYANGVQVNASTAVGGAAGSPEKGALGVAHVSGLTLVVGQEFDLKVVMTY
Description: as §1

[6] = Reducing power by Somogyi-Nelson's method expressed as DE; type: physicochemical; details: high-purity saccharide preparations of Experiment 4
Description: The reducing powders of these novel saccharides were determined on the Somogyi-Nelson's method and expressed by DE (dextrose equivalent).

[7] = target: β-amylase (Glycine max, UniProt P10538); assay: Hydrolysis by β-amylase; type: biochemical; details: similarly as with glucoamylase
Chain of β-amylase (P10538 whole entry, species assumed): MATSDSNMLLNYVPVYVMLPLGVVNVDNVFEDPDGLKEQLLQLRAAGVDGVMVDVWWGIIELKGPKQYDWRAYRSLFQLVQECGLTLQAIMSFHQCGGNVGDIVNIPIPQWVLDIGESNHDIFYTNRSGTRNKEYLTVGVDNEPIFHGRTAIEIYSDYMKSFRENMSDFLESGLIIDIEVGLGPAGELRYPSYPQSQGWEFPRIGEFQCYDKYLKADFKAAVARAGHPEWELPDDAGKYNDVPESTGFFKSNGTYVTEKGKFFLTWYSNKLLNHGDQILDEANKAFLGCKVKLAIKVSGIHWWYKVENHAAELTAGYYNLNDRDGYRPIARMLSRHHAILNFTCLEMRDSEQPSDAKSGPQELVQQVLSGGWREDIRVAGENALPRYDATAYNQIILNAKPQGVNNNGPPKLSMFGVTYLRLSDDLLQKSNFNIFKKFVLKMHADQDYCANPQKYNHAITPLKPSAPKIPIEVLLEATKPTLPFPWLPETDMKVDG

[8] = target: T2, α-amylase specimen derived from pig pancreas (Sus scrofa, UniProt P00690); assay: Hydrolysis by α-amylase; type: biochemical; set-up: Saccharide composition of hydrolysate: P I / Saccharide composition of hydrolysate: P II / Saccharide composition of hydrolysate: G3 (maltotriose) / Saccharide composition of hydrolysate: G2 (maltose) / Saccharide composition of hydrolysate: G1 (glucose): unit not given here; details: for Hydrolysis by α-amylase: conclusion from Table 6; for Saccharide composition of hydrolysate: G1 (glucose) / Saccharide composition of hydrolysate: G2 (maltose) / Saccharide composition of hydrolysate: G3 (maltotriose) / Saccharide composition of hydrolysate: P I / Saccharide composition of hydrolysate: P II: α-amylase, 10 mg/ml, pH 6.9, 37° C., 18 hours, HPLC
T2 construct: purchased Sigma Chemical Company, St. Louis, USA; host or cells: pig pancreas
T2 sequence (P00690 16-511): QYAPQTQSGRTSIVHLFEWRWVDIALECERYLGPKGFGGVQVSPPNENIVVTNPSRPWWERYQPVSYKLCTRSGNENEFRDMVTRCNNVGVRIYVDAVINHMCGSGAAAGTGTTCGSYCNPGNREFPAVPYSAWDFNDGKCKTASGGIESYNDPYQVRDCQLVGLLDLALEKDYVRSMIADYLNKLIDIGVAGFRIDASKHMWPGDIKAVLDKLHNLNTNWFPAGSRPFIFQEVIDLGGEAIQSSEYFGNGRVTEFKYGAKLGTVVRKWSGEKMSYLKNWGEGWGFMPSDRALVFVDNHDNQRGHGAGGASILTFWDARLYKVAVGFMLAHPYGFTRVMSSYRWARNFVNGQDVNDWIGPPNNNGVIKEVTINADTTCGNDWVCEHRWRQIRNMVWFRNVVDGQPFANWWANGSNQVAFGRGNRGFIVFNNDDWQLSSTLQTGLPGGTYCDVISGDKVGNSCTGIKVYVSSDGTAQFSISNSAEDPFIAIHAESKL
Description: as §1

Compound	Death of mice [1]	Glucose [2]	Trehalose [2]	Molecular ratio (Glucose/Trehalose) [2]	Coloration degree (480 nm) [3]	Coloration degree relative to corresponding material maltooligosaccharide [3]	Saccharide composition of hydrolysate with rat intestinal acetone powder: Glucose [4]	Saccharide composition of hydrolysate with rat intestinal acetone powder: Other saccharides [4]	Saccharide composition of hydrolysate with rat intestinal acetone powder: Trehalose [4]	Saccharide composition of hydrolysate with α-glucosidase: Glucose [5]	Saccharide composition of hydrolysate with α-glucosidase: Other saccharides [5]	Saccharide composition of hydrolysate with α-glucosidase: Trehalose [5]	DE [6]	Hydrolysis by β-amylase [7]	Hydrolysis by α-amylase [8]	Saccharide composition of hydrolysate: G1 (glucose) [8]	Saccharide composition of hydrolysate: G2 (maltose) [8]	Saccharide composition of hydrolysate: G3 (maltotriose) [8]	Saccharide composition of hydrolysate: P I [8]	Saccharide composition of hydrolysate: P II [8]	also measured
OC[C@H]1O[C@H](O[C@H]2O[C@H](CO)[C@@H](O[C@H]3O[C@H](CO)[C@@H](O)[C@H](O)[C@H]3O)[C@H](O)[C@H]2O)[C@H](O)[C@@H](O)[C@@H]1O [P I, α-glucosyl trehalose]	no mouse died	36.2%	63.8%	1.07	0.027	3-6%	37.2%	0.4%	62.4%	36.5%	0.5%	63.0%	0.83	not hydrolyzed	not substantially hydrolyzed	0	0.4	2.3	97.3	0	–
OC[C@H]1O[C@H](O[C@H]2O[C@H](CO)[C@@H](O[C@H]3O[C@H](CO)[C@@H](O[C@H]4O[C@H](CO)[C@@H](O)[C@H](O)[C@H]4O)[C@H](O)[C@H]3O)[C@H](O)[C@H]2O)[C@H](O)[C@@H](O)[C@@H]1O [P II, α-maltosyl trehalose]	no mouse died	52.0%	48.0%	2.06	0.018	3-6%	52.5%	0.4%	47.1%	52.1%	0.3%	47.6%	0.35	not hydrolyzed	not substantially hydrolyzed	0	0.8	0.4	0	98.8	–
OC[C@H]1O[C@H](O[C@H]2O[C@H](CO)[C@@H](O[C@H]3O[C@H](CO)[C@@H](O[C@H]4O[C@H](CO)[C@@H](O[C@H]5O[C@H](CO)[C@@H](O)[C@H](O)[C@H]5O)[C@H](O)[C@H]4O)[C@H](O)[C@H]3O)[C@H](O)[C@H]2O)[C@H](O)[C@@H](O)[C@@H]1O [P III, α-maltotriosyl trehalose]	no mouse died	61.4%	38.6%	3.02	0.012	3-6%	62.0%	0.4%	37.6%	61.7%	0.2%	38.1%	0.10	one mole of maltose and one mole of P I	hydrolyzed by α-amylase into lower molecular weight oligosaccharides	1.2	33.0	0	61.0	4.8	–
OC[C@H]1O[C@H](O[C@H]2O[C@H](CO)[C@@H](O[C@H]3O[C@H](CO)[C@@H](O[C@H]4O[C@H](CO)[C@@H](O[C@H]5O[C@H](CO)[C@@H](O[C@H]6O[C@H](CO)[C@@H](O)[C@H](O)[C@H]6O)[C@H](O)[C@H]5O)[C@H](O)[C@H]4O)[C@H](O)[C@H]3O)[C@H](O)[C@H]2O)[C@H](O)[C@@H](O)[C@@H]1O [P IV, α-maltotetraosyl trehalose]	no mouse died	68.3%	31.7%	4.09	0.016	3-6%	68.8%	0.4%	30.8%	69.5%	0.3%	30.2%	0.27	one mole of maltose and one mole of P II	hydrolyzed by α-amylase into lower molecular weight oligosaccharides	1.6	7.5	40.4	47.2	3.3	LD50 [1]: ≥ 50000 mg/kg
OC[C@H]1O[C@H](O[C@H]2O[C@H](CO)[C@@H](O[C@H]3O[C@H](CO)[C@@H](O[C@H]4O[C@H](CO)[C@@H](O[C@H]5O[C@H](CO)[C@@H](O[C@H]6O[C@H](CO)[C@@H](O[C@H]7O[C@H](CO)[C@@H](O)[C@H](O)[C@H]7O)[C@H](O)[C@H]6O)[C@H](O)[C@H]5O)[C@H](O)[C@H]4O)[C@H](O)[C@H]3O)[C@H](O)[C@H]2O)[C@H](O)[C@@H](O)[C@@H]1O [P V, α-maltopentaosyl trehalose]	no mouse died	72.9%	27.1%	5.11	0.015	3-6%	73.4%	0.1%	26.5%	71.4%	0.3%	28.3%	0.23	two moles of maltose and one mole of P I	hydrolyzed by α-amylase into lower molecular weight oligosaccharides	1.0	8.6	35.3	10.2	44.9	LD50 [1]: ≥ 50000 mg/kg
